Measured values: ChEMBL document CHEMBL4680155, “One-pot synthesis and molecular docking of some new spiropyranindol-2-one derivatives as immunomodulatory agents and in vitro antimicrobial potential with DNA gyrase inhibitor” (Eur J Med Chem, 2020)
In brackets after ≈: the same amount, converted by molar mass.

Legend:
Staphylococcus aureus [1] = assay: Bactericidal activity against Staphylococcus aureus ATCC 33591 incubated for 24 hrs followed by transferring to freshly prepared broth medium and measured after 24 hrs by broth microdilution assay; type: functional; conditions: time 48 hrs
Salmonella typhimurium [2] = assay: Bactericidal activity against Salmonella typhi ATCC 6539 incubated for 24 hrs followed by transferring to freshly prepared broth medium and measured after 24 hrs by broth microdilution assay; type: functional, Salmonella enterica subsp. enterica serovar […]; conditions: Salmonella enterica, time 48 hrs
Candida albicans [3] = assay: Antifungal activity against Candida albicans ATCC 10231 assessed as reduction in bacterial growth incubated for 1 day by paper disk diffusion method; type: functional; conditions: ATCC 10231, 24 h
Staphylococcus aureus [4] = assay: Antibacterial activity against multidrug resistant Staphylococcus aureus ATCC 43300 assessed as reduction in bacterial growth incubated for 1 day by paper disk diffusion method; type: functional; conditions: ATCC 43300, 24 h
Aspergillus brasiliensis [5] = assay: Fungicidal activity against Aspergillus brasiliensis ATCC 16404 incubated for 72 hrs followed by transferring to freshly prepared broth medium and measured after 24 hrs by broth microdilution assay; type: functional; conditions: time 96 hrs
Enterococcus faecalis [6] = assay: Bactericidal activity against Enterococcus faecalis ATCC 29212 incubated for 24 hrs followed by transferring to freshly prepared broth medium and measured after 24 hrs by broth microdilution assay; type: functional; conditions: time 48 hrs
Candida albicans [7] = assay: Fungicidal activity against Candida albicans ATCC 10231 incubated for 24 hrs followed by transferring to freshly prepared broth medium and measured after 24 hrs by broth microdilution assay; type: functional; conditions: time 48 hrs
Staphylococcus aureus [8] = assay: Antibacterial activity against multidrug resistant Staphylococcus aureus ATCC 33591 assessed as diameter of inhibition zone at 0.5 mg/ml incubated for 24 hrs by agar diffusion method; type: functional; conditions: read-out: DIZ
Pseudomonas aeruginosa [9] = assay: Antibacterial activity against multidrug resistant Pseudomonas aeruginosa ATCC BAA-2111 assessed as reduction in bacterial growth incubated for 1 day by paper disk diffusion method; type: functional; conditions: ATCC BAA-2111, 24 h
Enterococcus faecalis [10] = assay: Antibacterial activity against Enterococcus faecalis ATCC 29212 assessed as diameter of inhibition zone at 0.5 mg/ml incubated for 24 hrs by agar diffusion method; type: functional; conditions: read-out: DIZ
Escherichia coli [11] = assay: Bactericidal activity against Escherichia coli ATCC 25922 incubated for 24 hrs followed by transferring to freshly prepared broth medium and measured after 24 hrs by broth microdilution assay; type: functional; conditions: time 48 hrs
Escherichia coli [12] = assay: Antibacterial activity against Escherichia coli ATCC 25922 assessed as diameter of inhibition zone at 0.5 mg/ml incubated for 24 hrs by agar diffusion method; type: functional; conditions: read-out: DIZ
Staphylococcus aureus [13] = assay: Bactericidal activity against Staphylococcus aureus ATCC 29213 incubated for 24 hrs followed by transferring to freshly prepared broth medium and measured after 24 hrs by broth microdilution assay; type: functional; conditions: time 48 hrs
Staphylococcus aureus [14] = assay: Antibacterial activity against Staphylococcus aureus ATCC 29213 assessed as reduction in bacterial growth incubated for 1 day by paper disk diffusion method; type: functional; conditions: ATCC 29213, 24 h
Staphylococcus aureus [15] = assay: Antibacterial activity against Staphylococcus aureus ATCC 29213 assessed as diameter of inhibition zone at 0.5 mg/ml incubated for 24 hrs by agar diffusion method; type: functional; conditions: read-out: DIZ
Escherichia coli [16] = assay: Antibacterial activity against multidrug resistant Escherichia coli ATCC BAA-196 assessed as diameter of inhibition zone at 0.5 mg/ml incubated for 24 hrs by agar diffusion method; type: functional; conditions: read-out: DIZ
Aspergillus brasiliensis [17] = assay: Antifungal activity against Aspergillus brasiliensis ATCC 16404 assessed as reduction in bacterial growth incubated for 3 days by paper disk diffusion method; type: functional; conditions: ATCC 16404, 72 h, time 3 day
Staphylococcus aureus [18] = assay: Antibacterial activity against multidrug resistant Staphylococcus aureus ATCC 33591 assessed as reduction in bacterial growth incubated for 1 day by paper disk diffusion method; type: functional; conditions: ATCC 33591, 24 h
Neutrophil = assay: Immunomodulatory activity in human neutrophils infected with bacteria assessed as increase in bacterial killing by measuring reduced NBT incubated for 30 mins by NBT dye based spectrophotometry; type: functional; parameters: concentration or dose not given beside the values; conditions: 0.5 h
Escherichia coli [19] = assay: Antibacterial activity against Escherichia coli ATCC 25922 assessed as reduction in bacterial growth incubated for 1 day by paper disk diffusion method; type: functional; conditions: ATCC 25922, 24 h
DNA gyrase = DNA gyrase (Staphylococcus aureus, UniProt P0A0K8+P20831); assay: Inhibition of Staphylococcus aureus DNA gyrase using relaxed pBR322 DNA as substrate incubated for 45 mins by agarose gel electrophoresis method; type: protein-complex assay
Sequence of DNA gyrase (P0A0K8 whole entry): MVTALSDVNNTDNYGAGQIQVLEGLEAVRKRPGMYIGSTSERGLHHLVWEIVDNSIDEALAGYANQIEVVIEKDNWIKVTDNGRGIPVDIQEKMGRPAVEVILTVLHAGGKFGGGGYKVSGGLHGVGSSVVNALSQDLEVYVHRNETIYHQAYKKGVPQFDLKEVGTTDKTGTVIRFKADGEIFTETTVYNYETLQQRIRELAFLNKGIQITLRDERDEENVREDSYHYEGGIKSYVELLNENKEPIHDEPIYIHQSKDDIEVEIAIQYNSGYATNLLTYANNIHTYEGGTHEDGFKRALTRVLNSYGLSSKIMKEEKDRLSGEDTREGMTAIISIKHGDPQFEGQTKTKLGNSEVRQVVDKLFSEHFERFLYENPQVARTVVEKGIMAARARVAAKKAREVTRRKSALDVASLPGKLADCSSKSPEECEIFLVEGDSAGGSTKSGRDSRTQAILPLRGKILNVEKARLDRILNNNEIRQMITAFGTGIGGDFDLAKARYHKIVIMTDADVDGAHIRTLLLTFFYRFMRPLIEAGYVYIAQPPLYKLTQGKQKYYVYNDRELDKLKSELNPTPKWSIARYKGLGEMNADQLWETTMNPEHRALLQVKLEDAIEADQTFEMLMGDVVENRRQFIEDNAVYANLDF
Sequence of DNA gyrase (P20831 whole entry): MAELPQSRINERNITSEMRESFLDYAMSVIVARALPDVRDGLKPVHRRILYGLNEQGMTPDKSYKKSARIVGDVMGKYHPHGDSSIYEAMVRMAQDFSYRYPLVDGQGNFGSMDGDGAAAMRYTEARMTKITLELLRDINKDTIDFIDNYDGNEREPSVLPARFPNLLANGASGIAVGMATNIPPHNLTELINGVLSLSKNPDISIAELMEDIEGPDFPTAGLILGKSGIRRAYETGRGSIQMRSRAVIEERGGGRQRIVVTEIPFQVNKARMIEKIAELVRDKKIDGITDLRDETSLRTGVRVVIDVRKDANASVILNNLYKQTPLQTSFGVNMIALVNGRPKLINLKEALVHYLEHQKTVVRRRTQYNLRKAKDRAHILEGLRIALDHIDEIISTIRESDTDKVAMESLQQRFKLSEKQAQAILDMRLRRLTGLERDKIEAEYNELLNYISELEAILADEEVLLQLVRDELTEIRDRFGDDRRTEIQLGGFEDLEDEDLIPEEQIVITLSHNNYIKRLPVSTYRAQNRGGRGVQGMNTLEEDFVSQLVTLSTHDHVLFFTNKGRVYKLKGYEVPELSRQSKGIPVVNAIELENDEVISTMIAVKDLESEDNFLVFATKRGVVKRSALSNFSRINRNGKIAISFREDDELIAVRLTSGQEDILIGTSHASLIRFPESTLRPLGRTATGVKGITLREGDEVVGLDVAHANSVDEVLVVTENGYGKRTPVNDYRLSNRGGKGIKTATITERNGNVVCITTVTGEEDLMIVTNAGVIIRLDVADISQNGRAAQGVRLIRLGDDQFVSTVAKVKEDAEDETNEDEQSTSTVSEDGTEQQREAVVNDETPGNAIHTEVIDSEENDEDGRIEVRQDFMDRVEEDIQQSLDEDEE

Pseudomonas aeruginosa [20] = assay: Bactericidal activity against Pseudomonas aeruginosa ATCC BAA-2111 incubated for 24 hrs followed by transferring to freshly prepared broth medium and measured after 24 hrs by broth microdilution assay; type: functional; conditions: time 48 hrs
Salmonella typhimurium [21] = assay: Antibacterial activity against Salmonella typhi ATCC 6539 assessed as reduction in bacterial growth incubated for 1 day by paper disk diffusion method; type: functional, Salmonella enterica subsp. enterica serovar Typhimurium; conditions: Salmonella enterica, ATCC 6539, 24 h
Escherichia coli [22] = assay: Antibacterial activity against multidrug resistant Escherichia coli ATCC BAA-196 assessed as reduction in bacterial growth incubated for 1 day by paper disk diffusion method; type: functional; conditions: ATCC BAA-196, 24 h
Salmonella typhimurium [23] = assay: Antibacterial activity against Salmonella typhi ATCC 6539 assessed as diameter of inhibition zone at 0.5 mg/ml incubated for 24 hrs by agar diffusion method; type: functional, Salmonella enterica subsp. enterica serovar Typhimurium; conditions: Salmonella enterica, read-out: DIZ
Escherichia coli [24] = assay: Bactericidal activity against Escherichia coli ATCC BAA-196 incubated for 24 hrs followed by transferring to freshly prepared broth medium and measured after 24 hrs by broth microdilution assay; type: functional; conditions: time 48 hrs
Aspergillus brasiliensis [25] = assay: Antifungal activity against Aspergillus brasiliensis ATCC 16404 assessed as diameter of inhibition zone at 0.5 mg/ml incubated for 72 hrs by agar diffusion method; type: functional; conditions: read-out: DIZ
Staphylococcus aureus [26] = assay: Bactericidal activity against Staphylococcus aureus ATCC 43300 incubated for 24 hrs followed by transferring to freshly prepared broth medium and measured after 24 hrs by broth microdilution assay; type: functional; conditions: time 48 hrs
Enterococcus faecalis [27] = assay: Antibacterial activity against Enterococcus faecalis ATCC 29212 assessed as reduction in bacterial growth incubated for 1 day by paper disk diffusion method; type: functional; conditions: ATCC 29212, 24 h
Candida albicans [28] = assay: Antifungal activity against Candida albicans ATCC 10231 assessed as diameter of inhibition zone at 0.5 mg/ml incubated for 24 hrs by agar diffusion method; type: functional; conditions: read-out: DIZ
Pseudomonas aeruginosa [29] = assay: Antibacterial activity against multidrug resistant Pseudomonas aeruginosa ATCC BAA-2111 assessed as diameter of inhibition zone at 0.5 mg/ml incubated for 24 hrs by agar diffusion method; type: functional; conditions: read-out: DIZ
Staphylococcus aureus [30] = assay: Antibacterial activity against multidrug resistant Staphylococcus aureus ATCC 43300 assessed as diameter of inhibition zone at 0.5 mg/ml incubated for 24 hrs by agar diffusion method; type: functional; conditions: read-out: DIZ

CCOC(=O)C1=C(N)OC(C)=C(C(C)=O)C12C(=O)Nc1ccc(S(=O)(=O)N3CCOCC3)cc12 (centres undefined)
MBC (Staphylococcus aureus [1]): 5.07 µg/mL (≈ 10.3 µM) | MBC (Salmonella typhimurium [2]): 53.1 µg/mL (≈ 108 µM) | MIC (Candida albicans [3]): 8.88 µg/mL (≈ 18.1 µM) | MIC (Staphylococcus aureus [4]): 4.44 µg/mL (≈ 9.03 µM) | MFC (Aspergillus brasiliensis [5]): 177 µg/mL (≈ 359 µM) | MBC (Enterococcus faecalis [6]): 17.6 µg/mL (≈ 35.7 µM) | MFC (Candida albicans [7]): 15.6 µg/mL (≈ 31.8 µM) | zone of inhibition at 500 µg/mL (Staphylococcus aureus [8]): 23 mm | MIC (Pseudomonas aeruginosa [9]): 7.81 µg/mL (≈ 15.9 µM) | zone of inhibition at 500 µg/mL (Enterococcus faecalis [10]): 19 mm | MBC (Escherichia coli [11]): 20.3 µg/mL (≈ 41.3 µM) | zone of inhibition at 500 µg/mL (Escherichia coli [12]): 21 mm | MBC (Staphylococcus aureus [13]): 100 µg/mL (≈ 203 µM) | MIC (Staphylococcus aureus [14]): 62.5 µg/mL (≈ 127 µM) | zone of inhibition at 500 µg/mL (Staphylococcus aureus [15]): 23 mm | zone of inhibition at 500 µg/mL (Escherichia coli [16]): 24 mm | MIC (Aspergillus brasiliensis [17]): 88.3 µg/mL (≈ 180 µM) | MIC (Staphylococcus aureus [18]): 3.9 µg/mL (≈ 7.93 µM) | Activity (Neutrophil): 136.7% | MIC (Escherichia coli [19]): 15.6 µg/mL (≈ 31.8 µM) | IC50 (DNA gyrase): 25.1 µM | MBC (Pseudomonas aeruginosa [20]): 12.5 µg/mL (≈ 25.4 µM) | MIC (Salmonella typhimurium [21]): 31.2 µg/mL (≈ 63.6 µM) | MIC (Escherichia coli [22]): 3.9 µg/mL (≈ 7.93 µM) | zone of inhibition at 500 µg/mL (Salmonella typhimurium [23]): 20 mm | MBC (Escherichia coli [24]): 7.8 µg/mL (≈ 15.9 µM) | zone of inhibition at 500 µg/mL (Aspergillus brasiliensis [25]): 16 mm | MBC (Staphylococcus aureus [26]): 6.66 µg/mL (≈ 13.5 µM) | MIC (Enterococcus faecalis [27]): 12.5 µg/mL (≈ 25.4 µM) | zone of inhibition at 500 µg/mL (Candida albicans [28]): 20 mm | zone of inhibition at 500 µg/mL (Pseudomonas aeruginosa [29]): 20 mm | zone of inhibition at 500 µg/mL (Staphylococcus aureus [30]): 23 mm

CC(=O)C1=C(c2ccccc2)OC(N)=C(C#N)C12C(=O)Nc1ccc(S(=O)(=O)N3CCOCC3)cc12 (centres undefined)
MBC (Staphylococcus aureus [1]): 1.94 µg/mL (≈ 3.83 µM) | MBC (Salmonella typhimurium [2]): 81.2 µg/mL (≈ 160 µM) | MIC (Candida albicans [3]): 15.6 µg/mL (≈ 30.8 µM) | MIC (Staphylococcus aureus [4]): 0.97 µg/mL (≈ 1.91 µM) | MFC (Aspergillus brasiliensis [5]): 108 µg/mL (≈ 213 µM) | MBC (Enterococcus faecalis [6]): 20 µg/mL (≈ 39.5 µM) | MFC (Candida albicans [7]): 31.2 µg/mL (≈ 61.7 µM) | zone of inhibition at 500 µg/mL (Staphylococcus aureus [8]): 26 mm | MIC (Pseudomonas aeruginosa [9]): 4.44 µg/mL (≈ 8.77 µM) | zone of inhibition at 500 µg/mL (Enterococcus faecalis [10]): 26 mm | MBC (Escherichia coli [11]): 21.2 µg/mL (≈ 42 µM) | zone of inhibition at 500 µg/mL (Escherichia coli [12]): 23 mm | MBC (Staphylococcus aureus [13]): 23.1 µg/mL (≈ 45.6 µM) | MIC (Staphylococcus aureus [14]): 17.8 µg/mL (≈ 35.1 µM) | zone of inhibition at 500 µg/mL (Staphylococcus aureus [15]): 24 mm | zone of inhibition at 500 µg/mL (Escherichia coli [16]): 23 mm | MIC (Aspergillus brasiliensis [17]): 71.8 µg/mL (≈ 142 µM) | MIC (Staphylococcus aureus [18]): 0.97 µg/mL (≈ 1.91 µM) | Activity (Neutrophil): 123.5% | MIC (Escherichia coli [19]): 12.5 µg/mL (≈ 24.7 µM) | IC50 (DNA gyrase): 24.8 µM | MBC (Pseudomonas aeruginosa [20]): 6.66 µg/mL (≈ 13.1 µM) | MIC (Salmonella typhimurium [21]): 62.5 µg/mL (≈ 123 µM) | MIC (Escherichia coli [22]): 6.25 µg/mL (≈ 12.3 µM) | zone of inhibition at 500 µg/mL (Salmonella typhimurium [23]): 22 mm | MBC (Escherichia coli [24]): 5.85 µg/mL (≈ 11.5 µM) | zone of inhibition at 500 µg/mL (Aspergillus brasiliensis [25]): 20 mm | MBC (Staphylococcus aureus [26]): 145 µg/mL (≈ 286 µM) | MIC (Enterococcus faecalis [27]): 12.5 µg/mL (≈ 24.7 µM) | zone of inhibition at 500 µg/mL (Candida albicans [28]): 23 mm | zone of inhibition at 500 µg/mL (Pseudomonas aeruginosa [29]): 22 mm | zone of inhibition at 500 µg/mL (Staphylococcus aureus [30]): 25 mm
